Here are results for two molecules from patent US9034918B2, “Composition including at least one trans-cinnamaldehyde and the use thereof in the treatment of bacterial infections, specifically in the treatment of nosocomial infections” (SEPTEOS, priority 2009, dated 2015).

What all share (format): cell-based
In one test the test system is E. coli ATCC 25922. Kind of test: Antibiogram by diffusion technique (CA-SFM 2008). On the set-up: Diameter (D): unit not given here.
The test system of test [1] is strain 9010, Acinetobacter baumannii, with VEB-1 ESBL. Description: Antibiogram by diffusion technique (CA-SFM 2008). The method in brief:
(§1)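 CA-SFM 2008 diffusion antibiogram. MH agar, 0.5 McFarland inoculum diluted 1/100, swab-inoculated; 24 h, 37° C. Results reported as S/I/R category.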

The subject of test [2] is Enterococcus faecium (9001). Description: Antibiogram by diffusion technique (CA-SFM 2008). The conditions noted are these: strain 9001. The method in brief:
as §1

Test [3] concerns strain 9007, Pseudomonas aeruginosa, with VIM-2 carbapenemase. Description: Antibiogram by diffusion technique (CA-SFM 2008). Summed up:
as §1

Another test has as its system E. coli strain 9003. Description: Antibiogram by diffusion technique (CA-SFM 2008). The method in brief:
as §1

Test [4] deals with Enterobacter aerogenes (9004). Description: Antibiogram by diffusion technique (CA-SFM 2008). The conditions noted are these: strain 9004. Summed up: as §1
Test [5] relates to Pseudomonas aeruginosa strain 8132. Kind of test: Antibiogram by diffusion technique (CA-SFM 2008). On the set-up: D: unit not given here. Summed up: as §1
In the next test the test system is E. coli strain 8156. Description: Antibiogram by diffusion technique (CA-SFM 2008). Also noted: D: unit not given here. The method in brief:
as §1

Another test relates to E. coli strain 8155. Description: Antibiogram by diffusion technique (CA-SFM 2008). On the set-up: D: unit not given here. The method in brief: as §1
For test [6], the system named is Pseudomonas aeruginosa strain 8134. Description: Antibiogram by diffusion technique (CA-SFM 2008). On the set-up: D: unit not given here. The method in brief: as §1
Test [7] has as its system Pseudomonas aeruginosa strain 8129. Description: Antibiogram by diffusion technique (CA-SFM 2008). Also noted: D: unit not given here. The method in brief: as §1
Test [8] relates to golden staph (S. aureus) strain 8240. Description: Antibiogram by diffusion technique (CA-SFM 2008). Also noted: D: unit not given here. The method in brief: as §1
For test [9], the system named is Pseudomonas aeruginosa strain 8128. Description: Antibiogram by diffusion technique (CA-SFM 2008). Also noted: D: unit not given here. The method in brief: as §1
Test [10] relates to golden staph (S. aureus) strain 8147. Description: Antibiogram by diffusion technique (CA-SFM 2008). Also noted: D: unit not given here. Summed up: as §1
A further test deals with E. coli strain 8157. Kind of test: Antibiogram by diffusion technique (CA-SFM 2008). On the set-up: D: unit not given here. Summed up:
as §1

The subject of a further test is E. coli strain 8154. Kind of test: Antibiogram by diffusion technique (CA-SFM 2008). Also noted: D: unit not given here. Summed up:
as §1

Test [11] deals with golden staph (S. aureus) strain 8239. Kind of test: Antibiogram by diffusion technique (CA-SFM 2008). Also noted: D: unit not given here. Summed up: as §1
The subject of a further test is Enterococcus strain 8152. Kind of test: Antibiogram by diffusion technique (CA-SFM 2008). On the set-up: Diameter: unit not given here. Summed up: as §1
For the next test, the system named is Enterococcus strain 8153. Description: Antibiogram by diffusion technique (CA-SFM 2008). Also noted: Diameter: unit not given here. The method in brief:
as §1

Test [12] has as its system Gram-positive bacteria and Gram-negative bacteria, resistant strains. Description: Agar test, summary over the strains tested. The conditions noted are these: also on resistant strains, low volume concentrations. The text has this:
For bacteria to have good accessibility (aqueous phase multiplication only) to essential oils, it is essential to find a method of aqueous phase solubilization. This step is neglected in much work that directly uses the lipid phase, which is inaccessible to bacteria (oil-soaked disc placed on agar). Moreover, for the topical use of oils, this solubilization phase is also essential, and with the goal of practical application, surfactants and solubilization adjuvants are also selected for their satisfactory cutaneous tolerance.
The final preparation includes: 1.0 ml of essential oil, 3.4 ml of Tween 80 and 5.6 ml of 10% molar propylene glycol aqueous solution.
The day before the test, inoculate the strains in BH medium and on tilted MHA. Prepare test tubes containing 19 ml and 18 ml of MHA. Prepare test tubes containing 5 ml of 10% molar propylene glycol for the various dilutions.
On the day of the test, solubilize the trans-cinnamaldehyde as follows: • 1 ml of trans-cinnamaldehyde • 3.4 ml of Tween 80 • 5.6 ml of 10% molar propylene glycol.
When the trans-cinnamaldehyde is solubilized, prepare successive 1/2 dilutions in 10% molar propylene glycol.
Add 1 ml of suitable dilutions in the test tubes containing 19 ml of medium, homogenize well and pour into Petri dishes. […]
For Cat. in this document: key: sensitive (S): strains for which the MIC of the antibiotic tested is less than or equal to the lower critical concentration c; resistant (R): strains for which the MIC of the antibiotic tested are greater than the upper critical concentration C; intermediate sensitivity (I): strains for which the MIC of the antibiotic tested and the corresponding diameter are between the two critical concentrations and the two critical diameters.
For Category (Cat.) in this document: key: sensitive (S): strains for which the MIC of the antibiotic tested is less than or equal to the lower critical concentration c; resistant (R): strains for which the MIC of the antibiotic tested are greater than the upper critical concentration C; intermediate sensitivity (I): strains for which the MIC of the antibiotic tested and the corresponding diameter are between the two critical concentrations and the two critical diameters.

For Gentamicin, the “Category (Cat.)” value in the test on E. coli ATCC 25922 is on record as “S”. Also, the “Diameter (D)” value with E. coli ATCC 25922 came to 25. The Category result is reported as “R” in test [1]; “S” in test [2]; “S” in test [3]; “S” in the test with E. coli strain 9003; “S” in [4]; “R” in the test on Enterococcus strain 8152. The Category result in the test with Enterococcus strain 8153 is listed as “R”. In addition, the Cat. entry is given as “R” in [5]; “S” in the test with E. coli strain 8156; “S” with E. coli strain 8155; “R” in test [6]; “S” in test [7]; “S” in test [8]. Besides, the Cat. result (in test [9]; in test [10]; in the test with E. coli strain 8157; in the test with E. coli strain 8154; in [11]) was “S” in each case. Further, the D in [5] is recorded as 16; in the test with E. coli strain 8156, 25; in the test on E. coli strain 8155, 21; in test [6] it was 0; in test [7], 21; in [8] it was 27. The D in test [9] came to 27; in test [10], 26; with E. coli strain 8157, 25; in the test with E. coli strain 8154 it was 21; in test [11], 28. In addition, the Diameter with Enterococcus strain 8152 is 15; in the test with Enterococcus strain 8153 it was 14.
For the molecule `O=C/C=C/c1ccccc1` [trans-cinnamaldehyde], the “Spectrum of antibacterial activity” value in test [12] is “antibacterial activity on both Gram-positive bacteria and Gram-negative bacteria”.
